Like-named read-outs stand apart in the source and are kept apart here. Bridge positions count the residues as written; N and C are the ends. Square brackets hold non-standard residues; d marks the D form. Peptide text beside a SMILES is read from it. Nle = CCCC[C@H](N)C(=O)O

The experiment concerns the target T1, bovine trypsin (Bos taurus, UniProt P00760).
T1 sequence (P00760 24-246): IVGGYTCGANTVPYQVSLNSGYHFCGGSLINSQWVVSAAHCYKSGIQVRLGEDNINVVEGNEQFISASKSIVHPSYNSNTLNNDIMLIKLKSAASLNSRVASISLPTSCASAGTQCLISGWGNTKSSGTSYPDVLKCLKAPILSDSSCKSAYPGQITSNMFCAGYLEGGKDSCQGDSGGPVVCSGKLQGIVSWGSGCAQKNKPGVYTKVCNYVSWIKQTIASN
In words: Trypsin inhibitory activity of peptides (BApNA hydrolysis, OD405; IC50, Ki, residual activity). In kind it is biochemical. To be noted: for IC50: trypsin 50 nM, BApNA 1.22 mM, read-out: IC50. On the procedure:
The substrates N-succinyl-Ala-Ala-Pro-Phe-p-nitroaniline (AAPFpNA), Nα—Benzoyl-L-arginine-4-nitroaniline hydrochloride (BApNA) and N-succinyl-[…] (AAApNA) are used in competitive binding reaction to determine the inhibitory activities against α-chymotrypsin, bovine trypsin, and porcine pancreatic elastase, respectively. Experiments for α-chymotrypsin and bovine trypsin inhibition were measured in 20 mM CaCl2, 50 mM Tris-HCl buffer (pH 7.8), and that for porcine elastase inhibition was measured in 50 mM Tris-HCl buffer (pH 8.0). The concentration of the peptide was measured using optical density (OD) at 280 nm. The Michaelis constant (Km) of the enzyme hydrolysis substrate is calculated from the initial rate of substrate hydrolysis at 405 nm. The absorbance value of the substrate was measured at 405 nm after complete hydrolysis. All data were processed using nonlinear regression.
• (1) Added 200 μL of reaction buffer (20 mM CaCl2 and 50 mM Tris-HCl, pH 7.8) into the 96-well plate, and preheated at 37° C. for 15 min. Then added 5 μL of different concentrations of substrates (p-Nitroanilide, pNA, 0.5% in DMSO), and mixed by centrifugation at 500 rpm for 1 min. […] The experiment was performed in triplicate. The standard curve was obtained by plotting the OD405 nm value with pNA concentration. • (2) Added 190 μL of reaction buffer (20 mM CaCl2 and 50 mM Tris-HCl, pH 7.8) and 10 μL of 1 μM trypsin into the 96-well plate, and preheated at 37° C. for 15 min. Then added 5 μL of different concentrations of substrates (BApNA, 0.5% in DMSO) and mixed by centrifugation at 500 rpm for 1 min. […] The experiment was performed in triplicate. The corresponding curve was obtained by plotting the OD405 nm value with time. Divided the slope of the curve by the slope of the standard curve and the enzyme concentration to obtain the initial velocity V0 (mM/(min*mM protein). Plotted the initial velocity V0 with the concentration of substrate BApNA using Prism software, and the Michaelis constant Km value of trypsin hydrolyzing BApNA was obtained.
• (1) Added a total 190 μL of reaction buffer (20 mM CaCl2 and 50 mM Tris-HCl, pH 7.8) along with different concentrations of anti-trypsin peptides (BTs) into the pre-cooled 96-well plate, followed by preheating at 37° C., and spined down at 500 rpm for 5 min. Next added 10 μL of 1 μM trypsin, incubated at 37° C., and then spined down at 500 rpm for 10 min. Finally, added 5 μL of 50 mM BApNA, and mixed by centrifugation at 500 rpm for 1 min. The plate was incubated at 37° C. for 260 min, and the absorbance value at 405 nm was measured. The experiment was performed in triplicate. The blank control only contained the reaction buffer and the substrate as the minimum absorption value (Min OD405 nm). The negative control only contained the reaction buffer, the enzyme and the substrate as the maximum absorption value (Max OD405 nm). • (2) In the reaction system of 205 μL, the final concentrations of trypsin and BApNA were 50 nM and 1.22 mM, respectively. • (3) Data statistics
Residual activity of the enzyme (%)=(1−(Max OD405 nm−Sample OD405 nm)/(Max OD405 nm−Min OD405 nm))*100
Plotted the residual activity of the enzyme with […] to obtain the half inhibitory concentration (IC50) of BTs scaffold against trypsin. Then, substituted it into the formula Ki=IC50/(1+S/Km) (S, IC50 and Km were substrate concentration, half inhibitory concentration and Michaelis constant, respectively) to obtain the inhibition constant Ki of BTs scaffold against trypsin.

[1] abbreviates: read-out: inhibition constant (Ki) towards trypsin.
Where [2] appears, read: Ki=IC50/(1+S/Km), Km 0.33 mM, read-out: Ki.

Turning to `CC[C@H](C)[C@@H]1NC(=O)[C@@H]2CCCN2C(=O)[C@@H]2CCCN2C(=O)[C@H]([C@@H](C)CC)NC(=O)[C@H](CO)NC(=O)[C@H](CCCCN)NC(=O)[C@H]([C@@H](C)O)NC(=O)[C@H](C)NC(=O)[C@H](CCCNC(=N)N)NC(=O)CNC(=O)[C@@H](N)CSSC[C@@H](C(=O)O)NC(=O)CNC(=O)[C@H](Cc2ccccc2)NC(=O)[C@H](C)NC1=O` [BT32] (H-CGRATKSIPPIAFGC-OH; disulfide 1-15; N-terminus and C-terminus assumed), the “inhibitory activity against trypsin (in words)” value (“inhibitory activity” for short) is on record as “still maintained good inhibitory activity against trypsin”.
`CC[C@H](C)[C@@H]1NC(=O)[C@@H]2CCCN2C(=O)[C@@H]2CCCN2C(=O)[C@H]([C@@H](C)CC)NC(=O)[C@H](CO)NC(=O)[C@H](CCCCN)NC(=O)[C@H]([C@@H](C)O)NC(=O)[C@H](C)NC(=O)[C@H](CO)NC(=O)CNC(=O)[C@@H](N)CSSC[C@@H](C(=O)N[C@@H](Cc2ccccc2)C(=O)N2CCC[C@H]2C(=O)N[C@@H](CC(=O)O)C(=O)O)NC1=O` [BT6] (H-CGSATKSIPPICFPD-OH; disulfide 1-12; N-terminus and C-terminus assumed): the “inhibitory activity” value is listed as “enhanced trypsin inhibitory activity” and the IC50 was 290 nM. Moreover, the Residual trypsin activity (peptide 0.000488 μM) came out at 99.3 ± 7.2%. Also, the Residual trypsin activity (peptide 0.002439 μM) came out at 108.6 ± 7.1%. In addition, for the setting “peptide 0.00488 μM”, the Residual trypsin activity was 111.9 ± 7.2%. Moreover, the Residual trypsin activity (peptide 0.195 μM) came to 77.5 ± 7.6%. The Residual trypsin activity (peptide 0.488 μM) was determined as 25.9 ± 2.9%. Besides, the Residual trypsin activity (peptide 0.98 μM) was 8.5 ± 0.9%. For the same compound, the Residual trypsin activity (peptide 1.95 μM) came to 2.8 ± 0.0%. In addition, the Residual trypsin activity (peptide 4.88 μM) amounted to 1.2 ± 0.2%. Under setting [1], the Ki was determined as 60 nM.
For the compound `CC[C@H](C)[C@@H]1NC(=O)[C@H](CO)NC(=O)[C@H](CCCCN)NC(=O)[C@H]([C@@H](C)O)NC(=O)[C@H](C)NC(=O)[C@H](CCCNC(=N)N)NC(=O)CNC(=O)[C@@H](N)CSSC[C@@H](C(=O)O)NC(=O)[C@H](Cc2ccccc2)NC(=O)[C@H](C)NC(=O)[C@@H]2CCCN2C(=O)[C@@H]2CCCN2C1=O` [BT31] (H-CGRATKSIPPAFC-OH; disulfide 1-13 (inferred); N-terminus and C-terminus assumed), the half-maximal inhibitory concentration (IC50) was greater than 50000 nM.
For `CCCC[C@@H]1NC(=O)[C@H](CCCNC(=N)N)NC(=O)CNC(=O)[C@@H](N)CSSC[C@@H](C(=O)N[C@@H](Cc2ccccc2)C(=O)O)NC(=O)[C@H]([C@@H](C)CC)NC(=O)[C@@H]2CCCN2C(=O)[C@@H]2CCCN2C(=O)[C@H]([C@@H](C)CC)NC(=O)[C@H](CO)NC(=O)[C@H](CCCCN)NC(=O)[C@H]([C@@H](C)O)NC1=O` [BT50] (H-CGR[Nle]TKSIPPICF-OH; disulfide 1-12; C-terminus assumed), the “inhibitory activity” value is “good inhibitory activities against trypsin” and the IC50 was 70 nM. For the same compound, the Ki under setting [2] was 10 nM. Further, for the setting “listed as SEQ ID NO: 50”, the “inhibitory activity” value is “excellent trypsin inhibitory activities”. The Residual trypsin activity (peptide 0.000098 μM) is 106.1 ± 2.6%. Under “peptide 0.00098 μM”, the Residual trypsin activity turned out to be 108.5 ± 1.0%. Further, under “peptide 0.0098 μM”, the Residual trypsin activity is reported as 105.0 ± 3.9%. Moreover, the Residual trypsin activity (peptide 0.0488 μM) came to 73.5 ± 1.6%. For the same compound, under “peptide 0.0780 μM”, the Residual trypsin activity is 48.9 ± 1.8%. Also, the Residual trypsin activity (peptide 0.098 μM) is given as 22.6 ± 5.7%. For the same compound, the Residual trypsin activity (peptide 0.98 μM) is listed as 0.1 ± 0.0%. In addition, the Residual trypsin activity (peptide 9.76 μM) is listed as 0.0 ± 0.1%. Further, the Residual trypsin activity (peptide 97.56 μM) is listed as 0.0 ± 0.1%.
In the case of `CC[C@H](C)[C@@H]1NC(=O)[C@H](CO)NC(=O)[C@H](CCCNC(=N)N)NC(=O)[C@H]([C@@H](C)O)NC(=O)[C@@H](NC(=O)[C@@H](N)CCCNC(=N)N)CSSC[C@@H](C(=O)N[C@@H](Cc2c[nH]c3ccccc23)C(=O)O)NC(=O)[C@H](Cc2c[nH]cn2)NC(=O)[C@@H]2CCCN2C(=O)[C@@H]2CCCN2C1=O` [BT61] (H-RCTRSIPPHCW-OH; disulfide 2-10; N-terminus and C-terminus assumed), the Ki under setting [2] is 190 nM.
As to `CC[C@H](C)[C@@H]1NC(=O)[C@@H]2CCCN2C(=O)[C@@H]2CCCN2C(=O)[C@H]([C@@H](C)CC)NC(=O)[C@H](CO)NC(=O)[C@H](CCCCN)NC(=O)[C@H]([C@@H](C)O)NC(=O)[C@H](C)NC(=O)[C@H](CCCNC(=N)N)NC(=O)CNC(=O)[C@@H](N)CSSC[C@@H](C(=O)N[C@@H](Cc2ccccc2)C(=O)O)NC1=O` [BT9] (H-CGRATKSIPPICF-OH; disulfide 1-12; C-terminus assumed), the “inhibitory activity” value is recorded as “excellent trypsin inhibitory activities” and the IC50 was 70 nM. The Residual trypsin activity (peptide 0.00098 μM) came out at 100.4 ± 0.6%. Besides, where the note is “peptide 0.00488 μM”, the Residual trypsin activity came to 99.0 ± 0.5%. Besides, the Residual trypsin activity (peptide 0.0098 μM) was 94.3 ± 1.3%. Also, the Residual trypsin activity (peptide 0.02439 μM) was determined as 84.2 ± 1.9%. Moreover, under “peptide 0.0488 μM”, the Residual trypsin activity worked out at 68.1 ± 1.4%. Under “peptide 0.2439 μM”, the Residual trypsin activity amounted to 0.3 ± 0.0%. Besides, for the setting “peptide 0.488 μM”, the Residual trypsin activity is given as −0.2 ± 0.1%. For the same compound, the Residual trypsin activity (peptide 0.98 μM) was −0.4 ± 0.0%. In addition, under setting [1], the inhibition constant Ki was determined as 10 nM.
Consider `CC[C@H](C)[C@@H]1NC(=O)[C@H](CCCCN)NC(=O)[C@@H]2CCCN2C(=O)[C@H](C)NC(=O)[C@H](CCCNC(=N)N)NC(=O)CNC(=O)[C@@H](N)CSSC[C@@H](C(=O)N[C@@H](Cc2ccccc2)C(=O)O)NC(=O)[C@H](CCCNC(=N)N)NC(=O)[C@H](CCC(N)=O)NC(=O)[C@H](CC(C)C)NC1=O` [BT44] (H-CGRAPKILQRCF-OH; disulfide 1-11 (inferred); N-terminus and C-terminus assumed), for which the half-inhibitory concentration (IC50) was greater than 50000 nM.
As for `CC[C@H](C)[C@@H]1NC(=O)[C@@H]2CCCN2C(=O)[C@@H]2CCCN2C(=O)[C@H](C)NC(=O)[C@H](CO)NC(=O)[C@H](CCCNC(=N)N)NC(=O)[C@H]([C@@H](C)O)NC(=O)[C@H](C)NC(=O)[C@H](CCCNC(=N)N)NC(=O)CNC(=O)[C@@H](N)CSSC[C@@H](C(=O)N[C@@H](Cc2ccccc2)C(=O)O)NC1=O` [BT21] (H-CGRATRSAPPICF-OH; disulfide 1-12; N-terminus and C-terminus assumed), the “inhibitory activity” value is on record as “reduced their anti-trypsin activities”.
In the case of `CC[C@H](C)[C@@H]1NC(=O)[C@@H]2CCCN2C(=O)[C@@H]2CCCN2C(=O)[C@H]([C@@H](C)CC)NC(=O)[C@H](CO)NC(=O)[C@H](CCCNC(=N)N)NC(=O)[C@H]([C@@H](C)O)NC(=O)[C@H](C)NC(=O)[C@H](CCCNC(=N)N)NC(=O)CNC(=O)[C@@H](N)CSSC[C@@H](C(=O)N[C@@H](C)C(=O)O)NC1=O` [BT19] (H-CGRATRSIPPICA-OH; disulfide 1-12; N-terminus and C-terminus assumed), the “inhibitory activity” value is on record as “significant impact on their anti-trypsisn activities”.

(Values after patent publication US20230416329A1, “A PEPTIDE WITH DISULFIDE BONDS AND INHIBITORY ACTIVITY AGAINST SERINE PROTEASES, DERIVED HYBRID PEPTIDES THEREOF, AND USES THEREOF” (INSTITUTE OF MATERIA MEDICA , CHINESE ACADEMY OF MEDICAL …, priority 2020, published 2023).)
